From patent publication US9226913B2, “Methods of treating cancer using a combination of an immunomodulatory compound and an artemisinin or a derivative thereof” (Celgene Corporation, priority 2010, dated 2016)

How the values were obtained:
A549 cells = assay: MTT proliferation assay, 72 hr (Example 6.2); format: cell-based, human; settings: Homo sapiens, A549, 72 h, mean ± SD of at least five experiments
Procedure: (§1) The human cancer cell lines; MCF7 (breast), HCT116 (colon) and A549 (lung) (Cancer Research UK, London, UK), were grown in either DMEM (Sigma) or RPMI (Sigma) media supplemented with 10% foetal bovine serum, 2 mM L-glutamine, 1% penicillin/streptomycin.
(§2) To study the effect of each agent on cell growth, cells growing exponentially were added to 96-well plates at a density of 3×10^4/well. Drugs (0.1-100 μM) were then added to the wells, ensuring an equal volume of 200 μl across the plate. Cell number was measured at 72 hr using a standard methylthiazoletetrazolium (MTT)-based assay without modifications as described previously (Gordi et al., 2004, Toxicol. Lett. 147: 99-107). Briefly, MTT (Sigma) was added to each well to give a working concentration of 0.4 mg/ml, and plates returned to the incubator for a further 1 hr. After this time, the medium was aspirated off, 200 μl of DMSO was then added to each well, and plates agitated gently for 5 min before measuring optical density at 540 nm in each well.

HCT116^norm cells = assay: MTT proliferation assay, 72 hr (Example 6.2); format: cell-based, human; settings: Homo sapiens, 72 h, MTT, mean ± SD of at least five experiments, read-out: IC50
Procedure: as §1, §2

MCF7 cells [1] = assay: MTT proliferation assay, 72 hr (Example 6.2); format: cell-based, human; settings: Homo sapiens, MCF7, 72 h, mean ± SD of at least five experiments
Procedure: as §1, §2

[2] = test system: all the cell lines (A549, HCT116^norm, MCF7); assay: Effect of low LEN concentrations alone on cell numbers and viabilities (Example 6.2); format: cell-based, human; settings: LEN alone at 0.1 and 1 μM
Procedure: Median-effect analysis of combination requires the extrapolation of an IC50-value. Where this was not possible, the inventors explored the effect of combining drugs by fixing the concentration of GEM or LEN (modulating agent) and testing its ability to influence the activity of ART (drug partner). […] ART was diluted in growth medium and added to the plates in a range of drug concentrations to allow determination of IC50. The effect on these IC50 values of co-culture with a sub-optimal concentration (˜IC20) of GEM or LEN was then tested. Cell numbers at 72 hr were assessed by the MTT assay as previously described. This enabled the assessment of the nature of any drug-drug interaction by comparing the IC50 for ART in the presence and absence of the combinatorial drug partner.
The lack of a dose-response in the cells rendered the primary model of drug-drug interaction ineffectual for combinations of ART with LEN. For this reason the inventors next tested the ability of LEN to sensitise cells to ART. These combinatorial analyses were performed in all the cell lines using a smaller concentration of LEN (0.1 and 1 μM). These concentrations had little effect on cell numbers and viabilities.

KM cells = assay: MTT proliferation assay, 72 hr (Example 6.1); format: cell-based; settings: Homo sapiens, KM (melanoma), 72 hours treatment, mean ± SD of at least 3 experiments
Procedure: (§3) The human cancer cell lines; MCF7 (breast), HCT116 and SW480 (colon) (Cancer Research UK, London, UK), KM and MJT3 (melanoma) (in house), PANC1 and MIAPaCa (pancreas) (European Collection of Cell Cultures, Salisbury, UK) were grown in either DMEM (Sigma) or RPMI (Sigma) media supplemented with 10% foetal bovine serum, 2 mM L-glutamine, 1% penicillin/streptomycin.
as §2, with “ATM and ART” for “each agent”, “μL” for “μl”, “number/proliferation” for “number”, “modifications.” for “modifications as described previously (Gordi et al., 2004, Toxicol. Lett. 147: 99-107).”

MiaPaCa3 cells = assay: MTT proliferation assay, 72 hr (Example 6.1); format: cell-based; settings: Homo sapiens, MiaPaCa3 (pancreas), 72 hours treatment, mean ± SD of at least 3 experiments
Procedure: as §3
as §2, with “ATM and ART” for “each agent”, “μL” for “μl”, “number/proliferation” for “number”, “modifications.” for “modifications as described previously (Gordi et al., 2004, Toxicol. Lett. 147: 99-107).”

PANC1 cells = assay: MTT proliferation assay, 72 hr (Example 6.1); format: cell-based, human; settings: Homo sapiens, PANC-1; PANC1 (pancreas), 72 hours treatment, MTT; mean ± SD of at least 3 experiments
Procedure: as §3
as §2, with “ATM and ART” for “each agent”, “Drugs (0.1-100 μM) were then added to the wells, ensuring an equal volume of 200 μl across the plate.” left out, “number/proliferation” for “number”, “modifications.” for “modifications as described previously (Gordi et al., 2004, Toxicol. Lett. 147: 99-107).”, “μL” for “μl”

HCT116 cells = assay: MTT proliferation assay, 72 hr (Example 6.1); format: cell-based, human; settings: Homo sapiens, HCT-116; HCT116 (colon), 72 hours treatment, MTT; mean ± SD of at least 3 experiments
Procedure: as §3
as §2, with “ATM and ART” for “each agent”, “μL” for “μl”, “number/proliferation” for “number”, “modifications.” for “modifications as described previously (Gordi et al., 2004, Toxicol. Lett. 147: 99-107).”

MCF7 cells [3] = assay: MTT proliferation assay, 72 hr (Example 6.1); format: cell-based, human; settings: Homo sapiens, MCF7, 72 h, MCF7 (breast), 72 hours treatment, MTT; mean ± SD of at least 3 experiments
Procedure: as §3
as §2, with “ATM and ART” for “each agent”, “μL” for “μl”, “number/proliferation” for “number”, “modifications.” for “modifications as described previously (Gordi et al., 2004, Toxicol. Lett. 147: 99-107).”

MJT3 cells = assay: MTT proliferation assay, 72 hr (Example 6.1); format: cell-based, human; settings: Homo sapiens; MJT3 (melanoma), 72 hours treatment, MTT; mean ± SD of at least 3 experiments
Procedure: as §3
as §2, with “ATM and ART” for “each agent”, “μL” for “μl”, “number/proliferation” for “number”, “modifications.” for “modifications as described previously (Gordi et al., 2004, Toxicol. Lett. 147: 99-107).”

SW480 cells = assay: MTT proliferation assay, 72 hr (Example 6.1); format: cell-based, human; settings: Homo sapiens; SW480 (colon), 72 hours treatment, MTT; mean ± SD of at least 3 experiments
Procedure: as §3
as §2, with “ATM and ART” for “each agent”, “μL” for “μl”, “number/proliferation” for “number”, “modifications.” for “modifications as described previously (Gordi et al., 2004, Toxicol. Lett. 147: 99-107).”

Row | IC50 (A549 cells) [µM] | IC50 (HCT116^norm cells) [µM] | IC50 (MCF7 cells [1]) [µM] | IC50 (MiaPaCa3 cells) [µM] | IC50 (PANC1 cells) [µM] | IC50 (HCT116 cells) [µM] | IC50 (MCF7 cells [3]) [µM] | IC50 (SW480 cells) [µM] | SMILES | effect on cell numbers and viabilities [2] | IC50 (KM cells) [µM] | IC50 (MJT3 cells) [µM]
1 | > 100 | > 100 | > 100 | – | – | – | – | – | Nc1cccc2c1CN(C1CCC(=O)NC1=O)C2=O (centres unmarked) [Lenalidomide, 1-oxo-2-(2,6-dioxopiperidin-3-yl)-4-aminoisoindoline] | little effect | – | –
2 | – | – | – | 31 ± 13 | > 1000 | 204 ± 88 | 44 ± 15 | 156 ± 38 | C[C@@H]1CC[C@H]2[C@@H](C)C(=O)O[C@@H]3O[C@@]4(C)CC[C@@H]1[C@]32OO4 [Artemisinin, artemisinin] | – | 101 ± 15 | > 1000
